Reference: paper PMC8877061, “Antifungal and Antibiofilm Activity of Cyclic Temporin L Peptide Analogues against Albicans and Non-Albicans Candida Species” (Pharmaceutics, 2022)
Values after ≈ are worked out from the molar mass of the structure shown. Values joined by “and” are separate entries in the source; they are usually repeats but may differ in a detail not shown here. Identical values can stand only once. Like-named read-outs stand apart in the source and are kept apart here. Positions of bridges follow the written chain, without caps; N, C: chain ends. Non-standard residues stand in square brackets, D forms with d. Residues, ends and D or L forms follow the SMILES beside them. Triazole bridges read from a SMILES are 1,4-linked. Lys(N3) = [N-]=[N+]=NCCCC[C@H](N)C(=O)O; Pra = C#CC[C@H](N)C(=O)O

Legend:
[1] = Critical aggregation concentration with Nile red; type: physicochemical; conditions: aqueous solution, Nile red 500 nM, 1 h, peptide 1-200 μM, emission maximum fitted with Boltzmann sigmoid, triplicate
Method: The peptide aggregation in the aqueous solution was monitored using Nile red as a dye probe. Nile red has poor solubility in water, and it has a large tendency to move in a hydrophobic environment as aggregates, showing a blue shift. First, the stock solutions of the peptides were prepared by dissolving them in ethanol, and then different aliquots were taken to prepare the peptide solutions at different concentrations (1, 5, 10, 15, 20, 30, 50, 100 and 200 μM). The ethanol was evaporated under a nitrogen gas stream and then dissolved with sterile water (1.5 mL), sonicated for 15 min and freeze-dried. Then, each peptide solution was hydrated with Nile red solution (C = 500 nM) in the dark place for 1 h before measurement. The emission spectra of Nile red were measured between 570 and 700 nm at a slit width of 5 nm using an excitation wavelength of 550 nm and a 10-nm slit width. The data were repeated in triplicate and analyzed by plotting the maximum emission fluorescence corresponding wavelength (y) as a function of the peptide concentration (x) and fitting with the sigmoidal Boltzmann equation: y=A1−A2/1+e^(x−x0/Δx)+A2
In the equation, A1 and A2 indicate the upper and lower limits of the sigmoid, respectively, x0 is the inflection point of the sigmoid and Δx is the parameter which represents the steepness of the function. The sigmoidal plot allows for calculating the CAC value at x0.

C. albicans cells = assay: Zeta potential of fungal cells by dynamic light scattering; type: cell-based; set-up: Calculated Zeta Potential: unit not given here; conditions: for Experimental Zeta Potential (ς): C. albicans cells after peptide 25 μM, PBS 0.001×, electrophoretic light scattering; for Calculated Zeta Potential: theoretical: charge of the peptide added to the zeta potential of the C. albicans cells
Method: The zeta potential of the fungal cells was recorded in a suspension (0.5 × 10^6 cells/mL) using the electrophoretic light scattering technique on a Zetasizer Nano ZS analyzer. Before the peptide treatment, the cells were suspended using a 0.05% trypsin solution in 0.53 mM EDTA. The concentration of the suspended cells in a buffered phosphate saline (PBS, 1.7 mM KH2PO4, 5.2 mM Na2HPO4 and 150 mM NaCl) was determined on a hemocytometer. The measurements were performed by diluting the cells with PBS 0.001× and treating them with the peptide at a concentration of 25 μM.

[2] = Circular dichroism in liposomes mimicking eukaryotic membranes; type: physicochemical; conditions: SUVs DOPC:Chol 70:30, peptide 80 μM; for helical content: CD, phosphate buffer 5 mM pH 7.4, 25 °C, from [θ]222
Method: The circular dichroism spectra of the selected peptides (3, 7, 15 and 16) were recorded in small unilamellar vesicles (SUVs) composed of PE/PC/PI/Ergosterol (5:4:1:2, w/w/w/w, final lipid concentration = 0.01 mM) and DOPC/Chol (70:30, ratio in moles, final lipid concentration = 0.1 mM), between 190 and 260 nm on a JASCO J-710 CD spectropolarimeter at 25 °C using quartz cells with a 0.1-cm path length. The SUVs were prepared as reported in the following protocol. Once the lipid films were prepared as described above, they were hydrated with a phosphate buffer (5 mM, pH 7.4) (DOPC:Chol) or water (PE/PC/PI/Ergosterol) for 1 h and sonicated for 40 min. The peptides were dissolved in water to form a sample with a concentration of 80 μM in SUVs made of DOPC/Chol, while a peptide concentration of 10 μM was used in SUVs made of PE/PC/PI/Ergosterol. We accumulated the data three times, and all spectral data were subtracted from the background. Each spectrum converted the signal to the mean molar ellipticity, and we calculated the ratio of the ellipticities at 222 and 208 nm to discriminate between the monomeric and oligomeric states of the helices. The helix content was calculated as follows: [θ]222/(−40,000[1 − 2.5/n)], where [θ]222 is the ellipticity measurement at 222 nm and n is the number of amino acid residues.

C. parapsilosis DSM 5784 = type: cell-based; conditions: DSM 5784, 24 h
C. auris DSM 21092 = type: cell-based; conditions: DSM 21092, 24 h
Method: (§1) C. albicans ATCC 90028, C. auris DSM 21092, C. glabrata DSM 11226, C. tropicalis DSM11951 and C. parapsilosis DSM 4874 grown on YPD Agar (1% w/v yeast extract, 2% w/v peptone, 2% w/v glucose, 1.5% Agar) were cultured in Tryptone soya broth supplemented with 0.1% glucose for 16–18 h at 37 °C, washed twice using sterile phosphate-buffered saline (PBS) and standardized to […] as required for the experiments. RPMI1640 medium (Thermo Fisher Scientific, Waltham, MA, USA) buffered to a pH of 7.0 with 0.165 M MOPS was used for growing the biofilms of all Candida species.
(§2) The antifungal activity of peptides against all five Candida species was determined according to CLSI-M27-A3 [33], as reported previously. Briefly, the compounds were tested at concentrations ranging from […] to 50 μM, and the organism suspensions were adjusted to an inoculum of 10^6 cell/mL at OD 590 nm in RPMI 1640, added to the 96-well plate and incubated at 37 °C for 24 h. The minimum inhibitory concentration (MIC) values were determined as the lowest concentration inhibiting fungal growth at 590 nm using a microplate reader (Synergy™ H4; BioTek Instruments, Inc., Winooski, VT, USA). […] The MFC was the lowest concentration that yielded no colony growth on the agar. The MFC/MIC ratio was calculated to determine whether the substance had fungistatic (MFC/MIC ≥ 4) or fungicidal (MFC/MIC < 4) activity.

C. glabrata DSM 11226 = type: cell-based
Method: as §1, §2

C. tropicalis DSM 11951 = type: cell-based
Method: as §1, §2

[3] = CLSI-M27-A3, RPMI 1640, 10^6 cell/mL, 37 °C, 24 h, read at 590 nm

| Compound | critical aggregation concentration (CAC) [1] | Experimental Zeta Potential (ς) (C. albicans cells) | Calculated Zeta Potential (C. albicans cells) | helical content [2] | ratio of the ellipticities at 222 and 208 nm ([2]; >1 = helical aggregates) | MFC, C. parapsilosis DSM 5784 (C. parapsilosis DSM 5784) | MFC, C. auris DSM 21092 (C. auris DSM 21092) | MIC, C. auris DSM 21092 (C. auris DSM 21092) | MFC, C. glabrata DSM 11226 (C. glabrata DSM 11226; DSM 11226, 24 h) | MIC, C. glabrata DSM 11226 (C. glabrata DSM 11226; DSM 11226, 24 h) | MFC, C. tropicalis DSM 11951 (C. tropicalis DSM 11951; DSM 11951, 24 h) | MIC, C. tropicalis DSM 11951 (C. tropicalis DSM 11951; DSM 11951, 24 h) | conformation by CD in DOPC:Chol liposomes ([2]; 25 °C) | MIC, C. glabrata DSM 11226 (C. glabrata DSM 11226; [3]) | MIC, C. tropicalis DSM 11951 (C. tropicalis DSM 11951; [3]) |
| --- | --- | --- | --- | --- | --- | --- | --- | --- | --- | --- | --- | --- | --- | --- | --- |
| CC[C@H](C)[C@H](NC(=O)[C@H](CCCNC(=N)N)NC(=O)[C@@H]1CCCCNC(=O)CC[C@H](NC(=O)[C@H](Cc2ccccc2)NC(=O)[C@H](Cc2c[nH]c3ccccc23)NC(=O)[C@@H]2CCCN2C(=O)[C@@H](NC(=O)[C@@H](N)Cc2ccccc2)C(C)C)C(=O)N[C@@H](CCCCN)C(=O)N[C@@H](Cc2ccccc2)C(=O)N[C@H](CC(C)C)C(=O)N1)C(=O)N[C@@H](CC(C)C)C(N)=O [compound 15] (H-FVPWFEKF[dL]KRIL-NH2; lactam 6-10; N-terminus assumed) | 17 µM and 17.8 ± 0.9 µM | 13.5 ± 3.4 mV | −3.2 ± 0.5 | ~ 48% | greater than 1 | 50 µM (≈ 85.2 µg/mL) | >50 µM | 50 µM | >50 µM | 50 µM | >50 µM | 50 µM |  |  |  |
| CC[C@H](C)[C@H](NC(=O)[C@H](CCCNC(=N)N)NC(=O)[C@@H]1CCC(=O)NCCCC[C@H](NC(=O)[C@H](Cc2ccccc2)NC(=O)[C@H](Cc2c[nH]c3ccccc23)NC(=O)[C@@H]2CCCN2C(=O)[C@@H](NC(=O)[C@@H](N)Cc2ccccc2)C(C)C)C(=O)N[C@@H](CCCCN)C(=O)N[C@@H](Cc2ccccc2)C(=O)N[C@H](CC(C)C)C(=O)N1)C(=O)N[C@@H](CC(C)C)C(N)=O [compound 3] (H-FVPWFKKF[dL]ERIL-NH2; lactam 6-10; N-terminus assumed) | 17.3 ± 0.9 µM | 1.6 ± 0.3 mV | −3.2 ± 0.5 | ~ 13% |  | 50 µM (≈ 85.2 µg/mL) | 50 µM | 50 µM | 50 µM | 50 µM | 50 µM | 50 µM |  |  |  |
| CC[C@H](C)[C@H](NC(=O)[C@H](CCCNC(=N)N)NC(=O)[C@@H]1CSSC[C@H](NC(=O)[C@H](Cc2ccccc2)NC(=O)[C@H](Cc2c[nH]c3ccccc23)NC(=O)[C@@H]2CCCN2C(=O)[C@@H](NC(=O)[C@@H](N)Cc2ccccc2)C(C)C)C(=O)N[C@@H](CCCCN)C(=O)N[C@@H](Cc2ccccc2)C(=O)N[C@H](CC(C)C)C(=O)N1)C(=O)N[C@@H](CC(C)C)C(N)=O [compound 16] (H-FVPWFCKF[dL]CRIL-NH2; disulfide 6-10; N-terminus assumed) | 42.9 ± 0.7 µM | −6.5 ± 0.2 mV | −3.2 ± 0.5 |  |  | >50 µM | >50 µM | 50 µM | 50 µM |  | 50 µM |  | random coil conformation | 25 µM | 25 µM |
| CC(C)C[C@H](NC(=O)[C@@H]1CCCCn2cc(nn2)C[C@H](NC(=O)[C@H](CCCCN)NC(=O)[C@H](CO)NC(=O)[C@H](Cc2ccccc2)NC(=O)[C@H](Cc2c[nH]c3ccccc23)NC(=O)[C@@H]2CCCN2C(=O)[C@@H](NC(=O)[C@@H](N)Cc2ccccc2)C(C)C)C(=O)N[C@H](CC(C)C)C(=O)NCC(=O)N[C@@H](CCCNC(=N)N)C(=O)N1)C(N)=O [compound 7] (H-FVPWFSK[Pra][dL]GR[Lys(N3)]L-NH2; triazole 8-12; N-terminus assumed) | 45.4 ± 0.8 µM | −4.5 ± 1.6 mV | −3.2 ± 0.5 | ~ 23% |  | 50 µM (≈ 79.9 µg/mL) | >50 µM | 50 µM | 50 µM | 50 µM | 50 µM | 50 µM |  |  |  |
